Results on three molecules are retold here after ChEMBL document CHEMBL1152560, “Substituted 2-arylbenzothiazoles as kinase inhibitors: hit-to-lead optimization” (Bioorg Med Chem, 2009).

The residual activity is the signal under treatment as a percentage of the control signal.

The structures appear in SMILES notation.

For experiment [1], the target named is Dual specificity tyrosine-phosphorylation-regulated kinase 1A (Homo sapiens) (UniProt Q13627). Briefly: Residual activity of DYRK1A at 1 uM by microplate scintillation counting.
The target in experiment [2] is T1, Ephrin type-B receptor 1 (Homo sapiens) (UniProt P54762).
T1 sequence (whole entry): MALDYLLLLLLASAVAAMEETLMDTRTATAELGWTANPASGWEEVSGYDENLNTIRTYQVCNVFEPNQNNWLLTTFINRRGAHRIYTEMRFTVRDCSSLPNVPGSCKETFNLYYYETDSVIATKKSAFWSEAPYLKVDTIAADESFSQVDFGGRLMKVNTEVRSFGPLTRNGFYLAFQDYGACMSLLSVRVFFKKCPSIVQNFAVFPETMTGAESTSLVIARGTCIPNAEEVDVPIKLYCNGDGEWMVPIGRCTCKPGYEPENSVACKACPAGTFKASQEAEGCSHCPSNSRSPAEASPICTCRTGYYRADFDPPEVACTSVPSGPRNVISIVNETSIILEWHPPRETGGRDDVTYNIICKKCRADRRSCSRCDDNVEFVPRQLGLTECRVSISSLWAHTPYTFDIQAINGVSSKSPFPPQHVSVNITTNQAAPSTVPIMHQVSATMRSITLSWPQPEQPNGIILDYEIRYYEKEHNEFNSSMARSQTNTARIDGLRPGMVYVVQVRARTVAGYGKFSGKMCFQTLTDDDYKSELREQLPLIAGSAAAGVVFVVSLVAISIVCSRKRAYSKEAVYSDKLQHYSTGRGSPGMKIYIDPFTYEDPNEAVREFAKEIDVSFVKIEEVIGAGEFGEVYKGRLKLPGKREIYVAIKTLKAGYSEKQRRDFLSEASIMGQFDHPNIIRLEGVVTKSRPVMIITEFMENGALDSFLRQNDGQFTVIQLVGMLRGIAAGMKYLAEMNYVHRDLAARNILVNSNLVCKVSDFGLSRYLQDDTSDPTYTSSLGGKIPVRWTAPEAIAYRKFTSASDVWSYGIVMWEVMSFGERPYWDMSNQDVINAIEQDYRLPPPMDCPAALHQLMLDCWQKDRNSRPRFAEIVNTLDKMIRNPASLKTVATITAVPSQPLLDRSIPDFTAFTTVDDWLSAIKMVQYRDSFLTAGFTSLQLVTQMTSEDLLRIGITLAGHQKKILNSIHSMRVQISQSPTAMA
Briefly: Residual activity of EPHB1 at 1 uM by microplate scintillation counting.

Experiment [3] deals with Casein kinase II subunit alpha' (Homo sapiens) (UniProt P19784). Briefly: Residual activity of CK2alpha2 at 0.1 uM by microplate scintillation counting.
Casein kinase II subunit alpha' (Homo sapiens), sequence (P19784 whole entry, looked up): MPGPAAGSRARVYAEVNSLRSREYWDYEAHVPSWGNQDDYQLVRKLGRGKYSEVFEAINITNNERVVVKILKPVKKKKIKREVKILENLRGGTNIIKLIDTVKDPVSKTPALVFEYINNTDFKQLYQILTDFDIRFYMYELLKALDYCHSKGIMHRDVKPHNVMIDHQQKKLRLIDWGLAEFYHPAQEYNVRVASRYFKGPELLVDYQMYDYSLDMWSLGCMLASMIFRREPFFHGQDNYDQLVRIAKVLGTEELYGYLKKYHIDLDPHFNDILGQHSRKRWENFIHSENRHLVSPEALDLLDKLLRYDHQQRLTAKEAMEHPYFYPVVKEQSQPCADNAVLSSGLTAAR
For experiment [4], the target named is Protein-tyrosine kinase 2-beta (Homo sapiens) (UniProt Q14289). Briefly: Residual activity of PYK2 at 1 uM by microplate scintillation counting.
Protein-tyrosine kinase 2-beta (Homo sapiens), sequence (Q14289 whole entry, looked up): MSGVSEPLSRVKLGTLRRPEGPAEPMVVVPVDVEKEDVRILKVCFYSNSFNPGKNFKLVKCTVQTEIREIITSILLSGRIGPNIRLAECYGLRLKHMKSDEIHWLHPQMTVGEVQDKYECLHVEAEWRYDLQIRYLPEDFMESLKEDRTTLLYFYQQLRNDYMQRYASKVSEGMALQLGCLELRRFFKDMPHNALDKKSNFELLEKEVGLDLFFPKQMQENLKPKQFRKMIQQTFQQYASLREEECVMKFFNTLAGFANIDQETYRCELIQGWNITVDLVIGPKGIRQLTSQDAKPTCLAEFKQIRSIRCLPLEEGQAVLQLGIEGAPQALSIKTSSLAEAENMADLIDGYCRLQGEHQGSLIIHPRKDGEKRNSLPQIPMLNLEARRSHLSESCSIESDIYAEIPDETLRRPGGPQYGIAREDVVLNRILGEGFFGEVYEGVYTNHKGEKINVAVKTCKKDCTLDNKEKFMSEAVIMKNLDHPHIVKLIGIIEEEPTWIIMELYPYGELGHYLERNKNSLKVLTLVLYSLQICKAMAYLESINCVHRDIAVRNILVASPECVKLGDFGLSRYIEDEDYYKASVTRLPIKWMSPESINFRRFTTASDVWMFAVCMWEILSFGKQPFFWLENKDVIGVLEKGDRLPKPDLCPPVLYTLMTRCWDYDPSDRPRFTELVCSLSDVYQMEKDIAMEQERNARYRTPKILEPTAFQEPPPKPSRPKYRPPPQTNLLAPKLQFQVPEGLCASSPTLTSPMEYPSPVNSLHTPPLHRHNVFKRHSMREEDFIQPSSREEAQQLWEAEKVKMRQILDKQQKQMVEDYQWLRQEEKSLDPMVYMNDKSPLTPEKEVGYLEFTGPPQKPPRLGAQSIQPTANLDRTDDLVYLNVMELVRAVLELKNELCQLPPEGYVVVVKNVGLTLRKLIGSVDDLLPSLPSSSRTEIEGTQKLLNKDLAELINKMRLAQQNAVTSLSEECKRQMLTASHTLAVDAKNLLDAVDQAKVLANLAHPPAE
For experiment [5], the target named is T2, Serine/threonine-protein kinase 17A (Homo sapiens) (UniProt Q9UEE5).
T2 sequence (whole entry): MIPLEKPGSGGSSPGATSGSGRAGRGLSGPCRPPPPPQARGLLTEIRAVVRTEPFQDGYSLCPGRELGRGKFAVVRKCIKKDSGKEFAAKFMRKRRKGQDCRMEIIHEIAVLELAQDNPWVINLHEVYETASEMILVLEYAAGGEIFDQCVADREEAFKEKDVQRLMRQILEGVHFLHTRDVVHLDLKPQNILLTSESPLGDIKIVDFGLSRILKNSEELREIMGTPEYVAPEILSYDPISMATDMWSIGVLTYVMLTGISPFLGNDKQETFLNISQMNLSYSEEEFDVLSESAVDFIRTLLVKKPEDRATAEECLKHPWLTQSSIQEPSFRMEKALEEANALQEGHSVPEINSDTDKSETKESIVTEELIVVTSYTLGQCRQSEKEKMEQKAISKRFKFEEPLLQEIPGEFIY
Briefly: Residual activity of STK17A at 1 uM by microplate scintillation counting.

Experiment [6] concerns the target RAC-beta serine/threonine-protein kinase (Homo sapiens) (UniProt P31751). Briefly: Residual activity of AKT2 at 10 uM by microplate scintillation counting.
The target in experiment [7] is Myosin light chain kinase 2, skeletal/cardiac muscle (Homo sapiens) (UniProt Q9H1R3). Briefly: Residual activity of MYLK2 at 10 uM by microplate scintillation counting.
Myosin light chain kinase 2, skeletal/cardiac muscle (Homo sapiens), sequence (Q9H1R3 whole entry): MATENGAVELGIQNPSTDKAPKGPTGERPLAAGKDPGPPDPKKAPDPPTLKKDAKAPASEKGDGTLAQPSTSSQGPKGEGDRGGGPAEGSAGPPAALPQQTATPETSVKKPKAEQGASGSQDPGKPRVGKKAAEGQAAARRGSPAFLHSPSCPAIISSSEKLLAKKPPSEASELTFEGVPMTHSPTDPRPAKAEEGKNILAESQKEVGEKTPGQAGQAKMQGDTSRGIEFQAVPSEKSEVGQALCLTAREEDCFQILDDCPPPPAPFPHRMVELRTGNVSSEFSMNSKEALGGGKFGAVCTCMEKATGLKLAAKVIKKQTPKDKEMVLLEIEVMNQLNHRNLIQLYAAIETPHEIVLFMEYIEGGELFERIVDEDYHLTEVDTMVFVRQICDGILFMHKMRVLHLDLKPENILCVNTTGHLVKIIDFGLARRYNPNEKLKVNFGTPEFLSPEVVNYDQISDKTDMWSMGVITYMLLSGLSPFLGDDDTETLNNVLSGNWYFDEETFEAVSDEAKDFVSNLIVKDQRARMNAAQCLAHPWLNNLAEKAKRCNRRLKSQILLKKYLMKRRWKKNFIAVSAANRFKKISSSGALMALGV
Experiment [8] addresses Protein kinase C gamma type (Homo sapiens) (UniProt P05129). Briefly: Residual activity of PKCgamma at 0.1 uM by microplate scintillation counting.
Experiment [9] deals with T3, Serine/threonine-protein kinase D1 (Homo sapiens) (UniProt Q15139).
T3 sequence (whole entry): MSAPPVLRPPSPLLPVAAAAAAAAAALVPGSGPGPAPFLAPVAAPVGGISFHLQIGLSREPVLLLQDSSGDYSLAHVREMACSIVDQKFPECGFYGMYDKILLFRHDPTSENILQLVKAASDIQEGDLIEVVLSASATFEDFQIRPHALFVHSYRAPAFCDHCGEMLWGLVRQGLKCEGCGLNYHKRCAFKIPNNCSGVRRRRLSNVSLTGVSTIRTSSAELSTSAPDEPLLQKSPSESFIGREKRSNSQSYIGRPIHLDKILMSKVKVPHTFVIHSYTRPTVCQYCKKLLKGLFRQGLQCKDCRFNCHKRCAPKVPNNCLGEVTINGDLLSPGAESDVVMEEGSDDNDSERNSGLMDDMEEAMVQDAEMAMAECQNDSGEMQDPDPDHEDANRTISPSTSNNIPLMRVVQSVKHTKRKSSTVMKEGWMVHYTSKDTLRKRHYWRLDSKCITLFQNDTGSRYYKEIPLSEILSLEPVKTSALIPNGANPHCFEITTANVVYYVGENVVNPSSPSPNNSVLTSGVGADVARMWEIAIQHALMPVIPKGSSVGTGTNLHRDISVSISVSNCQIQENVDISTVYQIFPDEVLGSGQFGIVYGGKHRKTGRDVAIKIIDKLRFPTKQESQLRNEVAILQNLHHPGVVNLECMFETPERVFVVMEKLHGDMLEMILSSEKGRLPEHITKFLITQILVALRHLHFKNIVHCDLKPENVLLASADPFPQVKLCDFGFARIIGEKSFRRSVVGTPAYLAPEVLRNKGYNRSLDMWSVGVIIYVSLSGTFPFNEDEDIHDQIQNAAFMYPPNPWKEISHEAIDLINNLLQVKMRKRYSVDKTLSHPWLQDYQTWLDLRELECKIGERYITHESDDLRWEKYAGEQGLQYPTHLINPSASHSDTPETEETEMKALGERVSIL
Briefly: Residual activity of PKCmu at 0.1 uM by microplate scintillation counting.

RAC-beta serine/threonine-protein kinase (Homo sapiens), sequence (P31751 whole entry): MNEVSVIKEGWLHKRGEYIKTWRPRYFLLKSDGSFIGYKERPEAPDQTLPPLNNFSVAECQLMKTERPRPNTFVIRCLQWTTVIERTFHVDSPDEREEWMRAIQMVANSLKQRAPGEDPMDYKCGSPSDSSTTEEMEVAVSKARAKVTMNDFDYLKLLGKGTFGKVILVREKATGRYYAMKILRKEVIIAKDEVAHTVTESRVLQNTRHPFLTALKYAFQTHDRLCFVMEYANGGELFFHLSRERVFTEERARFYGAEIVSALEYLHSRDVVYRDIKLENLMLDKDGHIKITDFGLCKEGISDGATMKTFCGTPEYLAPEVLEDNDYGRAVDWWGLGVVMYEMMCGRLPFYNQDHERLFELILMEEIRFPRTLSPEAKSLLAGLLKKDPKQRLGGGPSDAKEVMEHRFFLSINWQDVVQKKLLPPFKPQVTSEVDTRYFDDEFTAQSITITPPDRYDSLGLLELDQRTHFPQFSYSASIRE

`COc1cc2c(Oc3ccc(-c4nc5ccccc5s4)cc3)ncnc2cc1OCCCN1CCN(C)CC1`: the residual activity was determined as 93% in [1]; 124% in experiment [2]; 98% in experiment [3]; 97% in experiment [4]; 62% in [5]; 175% in [6]. Moreover, the residual activity was 115% in experiment [7], 120% in experiment [8] and 91% in experiment [9].

`COc1cc2c(Oc3ccc(-c4nc5ccccc5s4)cc3)ncnc2cc1OCCCN1CCCC1`: the residual activity in [1] came out at 92%; in experiment [2] it was 102%; in [3] it was 91%; in [4], 109%; in experiment [5] it was 67%; in experiment [6], 119%. Also, the residual activity was found to be 82% in experiment [7], 99% in experiment [8] and 102% in experiment [9].

`COc1cc2c(Oc3ccc(-c4nc5ccccc5s4)cc3F)ncnc2cc1OCCCN1CCN(C)CC1`: the residual activity in experiment [1] is 91%; in experiment [2], 134%; in [3], 88%; in [4] it was 105%; in [5] it was 90%; in experiment [6], 167%. In addition, the figures for the residual activity in experiment [7], in experiment [8] and in experiment [9] were 117%, 101% and 81%, respectively.
